From ChEMBL document CHEMBL5131520, “Synthesis and Antitumor Activity of Diosgenin Hydroxamic Acid and Quaternary Phosphonium Salt Derivatives” (ACS Med Chem Lett, 2022)
Where a name gives a salt, the structure may show the parent alone.

Legend:
ASPC1 = assay: Antiproliferative activity against human ASPC1 cells assessed as inhibition of cell growth incubated for 48 hrs by CCK8 assay; assay type: functional, cell-based; conditions: ASPC1, 48 h
SW-620 = assay: Antiproliferative activity against human SW-620 cells assessed as inhibition of cell growth incubated for 48 hrs by CCK8 assay; assay type: functional, cell-based; conditions: SW-620, 48 h
NCI-H358 = assay: Antiproliferative activity against human NCI-H358 cells assessed as inhibition of cell growth incubated for 48 hrs by CCK8 assay; assay type: functional, cell-based; conditions: NCI-H358, 48 h
[1] = Water solubility of compound; assay type: physicochemical; conditions: buffer
HCT-116 = assay: Antiproliferative activity against human HCT-116 cells assessed as inhibition of cell growth incubated for 48 hrs by CCK8 assay; assay type: functional, cell-based; conditions: HCT-116, 48 h

Row | IC50 (ASPC1) [µM] | IC50 (SW-620) [µM] | IC50 (NCI-H358) [µM] | solubility [1] | IC50 (HCT-116) [µM] | SMILES
1 | 4.96 | 6.8 | 9.54 | Soluble | 34.4 | C[C@@H]1CC[C@@]2(OC1)O[C@H]1C[C@H]3[C@@H]4CC=C5C[C@@H](OC(=O)c6cccc(C(=O)NO)c6)CC[C@]5(C)[C@H]4CC[C@]3(C)[C@H]1[C@@H]2C
2 | 0.313 | 0.873 | 3.52 | Soluble | 4.15 | C[C@@H]1CC[C@@]2(OC1)O[C@H]1C[C@H]3[C@@H]4CC=C5C[C@@H](OC(=O)CCCC[P+](c6ccccc6)(c6ccccc6)C6CCCCC6)CC[C@]5(C)[C@H]4CC[C@]3(C)[C@H]1[C@@H]2C.[Br-]
3 | 0.29 | 1.16 | 3.66 | Soluble | 4.22 | C[C@@H]1CC[C@@]2(OC1)O[C@H]1C[C@H]3[C@@H]4CC=C5C[C@@H](OC(=O)CCCC[P+](c6ccccc6)(c6ccccc6)c6cccc(-c7ccccc7)c6)CC[C@]5(C)[C@H]4CC[C@]3(C)[C@H]1[C@@H]2C.[Br-]
4 | 9.29 | > 40 | 35.5 | Soluble | 35.8 | C[C@@H]1CC[C@@]2(OC1)O[C@H]1C[C@H]3[C@@H]4CC=C5C[C@@H](OC(=O)c6nccnc6C(=O)NO)CC[C@]5(C)[C@H]4CC[C@]3(C)[C@H]1[C@@H]2C
5 | 11.4 | 16.9 | 36.8 | Soluble | 39 | C[C@@H]1CC[C@@]2(OC1)O[C@H]1C[C@H]3[C@@H]4CC=C5C[C@@H](OC(=O)/C=C/C(=O)NO)CC[C@]5(C)[C@H]4CC[C@]3(C)[C@H]1[C@@H]2C
6 | 0.185 | 0.448 | 4.04 | Soluble | 4 | C[C@@H]1CC[C@@]2(OC1)O[C@H]1C[C@H]3[C@@H]4CC=C5C[C@@H](OC(=O)CCCC[P+](C6CCCCC6)(C6CCCCC6)C6CCCCC6)CC[C@]5(C)[C@H]4CC[C@]3(C)[C@H]1[C@@H]2C.[Br-]
7 | 1.09 | 1.17 | 2.18 | Soluble | 3.99 | CCCC[P+](CCCC)(CCCC)CCCCC(=O)O[C@H]1CC[C@@]2(C)C(=CC[C@H]3[C@@H]4C[C@@H]5O[C@]6(CC[C@@H](C)CO6)[C@@H](C)[C@@H]5[C@@]4(C)CC[C@@H]32)C1.[Br-]
8 | 0.652 | 6.8 | 1.71 | Soluble | 4.32 | C[C@@H]1CC[C@@]2(OC1)O[C@H]1C[C@H]3[C@@H]4CC=C5C[C@@H](OC(=O)CCCC[P+](c6ccc(Cl)cc6)(c6ccc(Cl)cc6)c6ccc(Cl)cc6)CC[C@]5(C)[C@H]4CC[C@]3(C)[C@H]1[C@@H]2C.[Br-]
9 | 7.8 | 10.7 | 15.2 | Soluble | 32.8 | Cc1cc(C(=O)NO)cc(C(=O)O[C@H]2CC[C@@]3(C)C(=CC[C@H]4[C@@H]5C[C@@H]6O[C@]7(CC[C@@H](C)CO7)[C@@H](C)[C@@H]6[C@@]5(C)CC[C@@H]43)C2)c1
10 | 2.14 | 2.43 | 4.32 | Soluble | 32.5 | C[C@@H]1CC[C@@]2(OC1)O[C@H]1C[C@H]3[C@@H]4CC=C5C[C@@H](OC(=O)CCCC(=O)NO)CC[C@]5(C)[C@H]4CC[C@]3(C)[C@H]1[C@@H]2C
11 | 2.31 | 1.92 | 12.6 | Soluble | 38.8 | C[C@@H]1CC[C@@]2(OC1)O[C@H]1C[C@H]3[C@@H]4CC=C5C[C@@H](OC(=O)CCCCC(=O)NO)CC[C@]5(C)[C@H]4CC[C@]3(C)[C@H]1[C@@H]2C
12 | 0.648 | 0.778 | 3.54 | Soluble | 4.25 | C[C@@H]1CC[C@@]2(OC1)O[C@H]1C[C@H]3[C@@H]4CC=C5C[C@@H](OC(=O)CCCC[P+](c6ccccc6)(c6ccccc6)c6ccccn6)CC[C@]5(C)[C@H]4CC[C@]3(C)[C@H]1[C@@H]2C.[Br-]
13 | 7.99 | 5.22 | 7.47 | Soluble | 31.8 | C[C@@H]1CC[C@@]2(OC1)O[C@H]1C[C@H]3[C@@H]4CC=C5C[C@@H](OC(=O)CCC(=O)NO)CC[C@]5(C)[C@H]4CC[C@]3(C)[C@H]1[C@@H]2C
14 | 0.728 | 1.42 | 3.82 | Soluble | 4.16 | C[C@@H]1CC[C@@]2(OC1)O[C@H]1C[C@H]3[C@@H]4CC=C5C[C@@H](OC(=O)CCCC[P+](c6ccc(F)cc6)(c6ccc(F)cc6)c6ccc(F)cc6)CC[C@]5(C)[C@H]4CC[C@]3(C)[C@H]1[C@@H]2C.[Br-]
15 | 22.9 | 11.1 | 23.1 | Soluble | > 40 | C[C@@H]1CC[C@@]2(OC1)O[C@H]1C[C@H]3[C@@H]4CC=C5C[C@@H](OC(=O)CCCCCCC(=O)NO)CC[C@]5(C)[C@H]4CC[C@]3(C)[C@H]1[C@@H]2C
16 | 7.44 | 9.59 | 13.6 | Soluble | 10.1 | C[C@@H]1CC[C@@]2(OC1)O[C@H]1C[C@H]3[C@@H]4CC=C5C[C@@H](OC(=O)CCCC[P+](C)(C)C)CC[C@]5(C)[C@H]4CC[C@]3(C)[C@H]1[C@@H]2C.[Br-]
17 | 7.63 | 29 | 27.1 | Soluble | 31.4 | CCCCCCCC[P+](CCCCCCCC)(CCCCCCCC)CCCCC(=O)O[C@H]1CC[C@@]2(C)C(=CC[C@H]3[C@@H]4C[C@@H]5O[C@]6(CC[C@@H](C)CO6)[C@@H](C)[C@@H]5[C@@]4(C)CC[C@@H]32)C1.[Br-]
18 | 2.62 | 4.39 | 3.51 | Soluble | 5 | CC[P+](CC)(CC)CCCCC(=O)O[C@H]1CC[C@@]2(C)C(=CC[C@H]3[C@@H]4C[C@@H]5O[C@]6(CC[C@@H](C)CO6)[C@@H](C)[C@@H]5[C@@]4(C)CC[C@@H]32)C1.[Br-]
19 | 15 | 23.4 | 10.4 | Soluble | 33.4 | C[C@@H]1CC[C@@]2(OC1)O[C@H]1C[C@H]3[C@@H]4CC=C5C[C@@H](OC(=O)CCCCCCCCC(=O)NO)CC[C@]5(C)[C@H]4CC[C@]3(C)[C@H]1[C@@H]2C
20 | 63.1 | > 40 | > 40 | – | 31.4 | C[C@@H]1CC[C@@]2(OC1)O[C@H]1C[C@H]3[C@@H]4CC=C5C[C@@H](O)CC[C@]5(C)[C@H]4CC[C@]3(C)[C@H]1[C@@H]2C [DISOGENIN]
21 | < 5 | < 5 | < 5 | – | > 1.25 | COc1cccc2c1C(=O)c1c(O)c3c(c(O)c1C2=O)C[C@@](O)(C(=O)CO)C[C@@H]3O[C@H]1C[C@H](N)[C@H](O)[C@H](C)O1 [DOXORUBICIN HYDROCHLORIDE]
